Results reported in patent US20250206714A1, “COMPOSITIONS AND METHODS FOR TREATMENT OF INFLAMMATORY DISEASES” (Invea Therapeutics, Inc., priority 2022, published 2025).

Tests used:
CYP 2C19 = target: T1, CYP 2C19 (Homo sapiens, UniProt P33261); experiment: Metabolic stability in human liver microsomes with CYP 2C19 inhibitor Nootkatone; assay type: in vitro ADME; settings: 1 μM + Nootkatone (20 μM)
T1 construct: The experiment was conducted in human liver microsomes; from tissue; host or cells: human liver microsomes

[1] = Solubility analysis (kinetic method, PBS pH 7.4); assay type: physicochemical; settings: phosphate buffered saline, aqueous buffer, kinetic from dmso stock, phosphate buffer saline (pH-7.4)
Protocol: Seven level calibration standards (i.e., 1, 5, 10, 50, 100, 200 and 300 μM) of the test compound were prepared from 20 mM primary stock solution in DMSO. An aliquot of 198 μL of PBS (pH-7.4) was dispensed into duplicate wells of a multiscreen solubility filter plate. Subsequently, 2 μL of test compound solution from 20 mM primary stock solution was added to give a final concentration of 200 μM, the plate was covered and shaken at 150 rotations per minute for 90 minutes. At the end of 90 minutes, samples were filtered using MultiScreen HTS vacuum Manifold assembly and the filtrates were collected into the acceptor plate. An aliquot of 150 μL of filtrate from the above 96-well acceptor plate were transferred into HPLC vials and analyzed by HPLC-PDA. Solubility was determined by comparing the absorbance of test/reference compound against the respective DMSO calibration curve.

in vitro = settings: for % rem @ 5 min / % rem @ 15 min / % rem @ 30 min / % rem @ 45 min: 1 µM; for % rem @ 5 min / % rem @ 15 min / % rem @ 30 min / % rem @ 45 min / half-life at 1 µM / microsomal CLint at 1 μM: pH 7.4; for half-life at 1 µM / microsomal CLint at 1 μM: microsomes
Protocol: All the tubes were pre-incubated at 37 t 1° C. for 5 min in a shaking water bath. Tubes of NADPH solution (10 mM) were similarly pre-incubated in similar conditions. After pre-incubation, 20 μL NADPH solution (10 mM) was added to the T0, T5, T15, T30, and T45 tubes, and 20 μL of buffer was added to the TControl tube which makes the final concentration to 1 μM respectively. T0 was immediately quenched with 200 μL of quenching solution containing warfarin as internal standard (IS). Similarly, at the end of the incubation period (5, 15, 30, and 45 minutes) of respective tubes, 200 μL of quenching solution containing warfarin as internal standard (IS) was added to each tube to stop the reaction. Resulting samples were centrifuged at 3220 g (relative centrifugal force) for 20 min. Supernatant (200 μL) from each reaction tube was taken for LC-MS/MS analysis.

THP-1 cells = experiment: Cell viability by propidium iodide staining; assay type: cell-based; settings: at 10 μM; with respect to DMSO control
Protocol: Human monocytic THP-1 cells were treated with phorbol 12-myristate 13 acetate (PMA) (100 nM) overnight to differentiate monocytic cells into macrophages. Then, after 24 hours of rest, the differentiated cells were incubated with test compounds for 12 hours at concentrations 0.01, 0.1, 1, 10, 30, and 50 μM. Cells were then washed once with PBS and primed with E. coli LPS (0.1 μg/ml) for 4 h followed by stimulation with ATP (5 μM) for an additional 30 min. The cell culture supernatants were then collected and OD values for IL-1β levels were measured by ELISA. The standard curve (OD VS concentration) for IL-1β was also plotted and used to determine the IL-1β concentration for the OD values. The percentage of inhibition of IL-1β was calculated using the formula: […]
The percentage IL-1β inhibition at different compound concentrations were plotted in a sigmoid curve and IC50 values were interpolated in Graphpad Prism. Cell death was evaluated by propidium iodide staining and OD was measured at 490 nm. Cell viability was estimated with respect to DMSO control.

T1 sequence (P33261 whole entry): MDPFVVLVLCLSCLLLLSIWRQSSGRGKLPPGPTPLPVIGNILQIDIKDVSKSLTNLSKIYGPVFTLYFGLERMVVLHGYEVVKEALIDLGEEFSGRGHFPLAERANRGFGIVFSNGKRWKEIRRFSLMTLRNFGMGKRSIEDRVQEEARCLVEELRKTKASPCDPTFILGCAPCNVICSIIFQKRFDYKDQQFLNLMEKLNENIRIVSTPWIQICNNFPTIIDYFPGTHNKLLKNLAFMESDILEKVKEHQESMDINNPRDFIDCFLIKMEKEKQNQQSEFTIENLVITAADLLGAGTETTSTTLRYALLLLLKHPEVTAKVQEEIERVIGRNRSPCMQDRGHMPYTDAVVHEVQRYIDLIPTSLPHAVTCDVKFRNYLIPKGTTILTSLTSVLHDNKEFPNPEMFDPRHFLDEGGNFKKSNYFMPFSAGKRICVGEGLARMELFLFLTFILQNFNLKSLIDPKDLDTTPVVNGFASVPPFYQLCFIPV

In the case of `O=C1Nc2ccccc2N(C(=O)CCl)c2ccc(F)cc21` [Compound 6, 5-(2-chloroacetyl)-2-fluoro-5,10-dihydro-11H-dibenzo[b,e][1,4]diazepin-11-one], the “% rem @ 5 min” value (CYP 2C19) is reported as about 100%, the “% rem @ 15 min” value (CYP 2C19) is reported as 98.6% and the “% rem @ 30 min” value (CYP 2C19) is reported as 84.6%. For the same compound, the “% rem @ 45 min” value (CYP 2C19) was 58.7%, the half-life at 1 µM (CYP 2C19; pH 7.4, with Nootkatone 20 μM) was 0.91 h and the microsomal CLint at 1 μM (CYP 2C19; pH 7.4, with Nootkatone 20 μM, read-out: mCLint) was 25.4 µL/min/mg. For the same compound, the solubility at 90 min [1] was over 200 µM, the “stability / metabolism by liver microsomes (in words)” value (in vitro) was “medium to highly stability” and the “% rem @ 5 min” value (in vitro; human) was 93.5%. The “% rem @ 15 min” value (in vitro; human) was 92.9%, the “% rem @ 30 min” value (in vitro; human) was 91.3% and the “% rem @ 45 min” value (in vitro; human) was 67.8%. For the same compound, the half-life at 1 µM (in vitro; human) was 1.6 h, the microsomal CLint at 1 μM (in vitro; human) was 14.4 µL/min/mg and the “% rem @ 5 min” value (in vitro; mouse) was about 100%. The “% rem @ 15 min” value (in vitro; mouse) was about 100%, the “% rem @ 30 min” value (in vitro; mouse) was 79.3% and the “% rem @ 45 min” value (in vitro; mouse) was 59.8%. For the same compound, the half-life at 1 µM (in vitro; mouse) was 0.95 h, the microsomal CLint at 1 μM (in vitro; mouse) was 24.3 µL/min/mg and the “% rem @ 5 min” value (in vitro; rat) was 98.7%. The “% rem @ 15 min” value (in vitro; rat) was 83.1%, the “% rem @ 30 min” value (in vitro; rat) was 75.3% and the “% rem @ 45 min” value (in vitro; rat) was 74.0%. The half-life at 1 µM (in vitro; rat) was 1.58 h, the microsomal CLint at 1 μM (in vitro; rat) was 14.6 µL/min/mg and the cell viability (THP-1 cells) was 99%.
